The results in this text go back to ChEMBL document CHEMBL1201862, “PubChem BioAssay data set” (2004).

Assay in all cases: growth of human tumour cells (NCI), 48 h
Test [1] has as its system SNB-19.
Test [2] has as its system SK-MEL-28.
In test [3] the test system is SK-MEL-2.
Test [4] relates to Hs-578T.
The test system of test [5] is BT-549.
Test [6] has as its system PC-3.
Test [7] concerns NCI/ADR-RES.
Test [8] relates to ACHN.
Test [9] concerns IGROV-1.
Test [10] has as its system SN12C.
The subject of test [11] is HCT-116.
The subject of test [12] is HCC 2998.
Test [13] concerns NCI-H23.
Test [14] has as its system MCF7.
Test [15] relates to OVCAR-8.
Test [16] deals with HT-29.
Test [17] deals with U-251.
In test [18] the test system is UO-31.
Test [19] deals with UACC-62.
In test [20] the test system is SR.

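Exposure lasted 48 hours, with cells grown in 96-well plates and compounds tested at five concentrations. GI50: concentration for 50% inhibition of growth.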 The source made the active and inactive calls. Rule as the data show it: active = GI50 up to about 1.1 µM and inactive = higher.

`O=C1OCC/C1=C/c1ccc(/N=N/c2c(O)ccc3ccccc23)cc1`: the GI50 in test [1] is 39.4 µM (inactive); in [2] it was 18.9 µM (inactive); in test [3] it was 26.7 µM (inactive); in [4] it was 27.2 µM (inactive); in test [5], 23.2 µM (inactive); in test [6], 19.9 µM (inactive). In addition, the GI50 in test [7] is 20.1 µM (inactive); in [8] it was 17.5 µM (inactive); in [9] it was 25.8 µM (inactive); in [10], 18.2 µM (inactive); in test [11], 17.6 µM (inactive); in test [12] it was 20.9 µM (inactive). The GI50 in test [13] is 19.5 µM (inactive); in test [14] it was 24.8 µM (inactive); in test [15], 26.7 µM (inactive); in [16] it was 19.4 µM (inactive); in test [17], 18.7 µM (inactive); in test [18], 19.1 µM (inactive). Also, the GI50 is 29.5 µM (inactive) in [19] and 15.2 µM (inactive) in [20].

As to `O=C(O)CCCCCNC(=O)CCC(CN(CC(=O)OCc1ccccc1)CC(=O)OCc1ccccc1)N(CC(=O)OCc1ccccc1)CC(=O)OCc1ccccc1` (stereo not drawn), the GI50 in [1] is 17.9 µM (inactive); in test [2], 19 µM (inactive); in test [3] it was 16 µM (inactive); in test [4] it was 20.5 µM (inactive); in test [5] it was 18.9 µM (inactive); in test [6], 17 µM (inactive). For the same compound, the GI50 in test [7] was 20.3 µM (inactive); in test [8], 18.1 µM (inactive); in [9], 17.6 µM (inactive); in test [10], 18.4 µM (inactive); in test [11], 17.1 µM (inactive); in test [12] it was 15.2 µM (inactive). The GI50 is 18.4 µM (inactive) in [13]; 19.4 µM (inactive) in test [14]; 16.5 µM (inactive) in test [15]; 17.9 µM (inactive) in test [16]; 22 µM (inactive) in test [17]; 15.8 µM (inactive) in test [18]. The GI50 is 16.7 µM (inactive) in test [19] and 20.9 µM (inactive) in [20].

On to `Cc1ccc([N+](=O)[O-])cc1S(=O)(=O)Nc1ccc(C2=NOC(c3ccco3)C2)cc1` (stereo not drawn), for which the GI50 in test [1] was 18.7 µM (inactive); in [2], 18.2 µM (inactive); in test [3], 16 µM (inactive); in [4] it was 29.8 µM (inactive); in test [5], 18 µM (inactive); in test [6] it was 15.7 µM (inactive). Also, the GI50 in test [7] was 14.5 µM (inactive); in test [8], 21.3 µM (inactive); in test [9], 24 µM (inactive); in test [10] it was 21.9 µM (inactive); in test [11], 16.4 µM (inactive); in test [12] it was 17.2 µM (inactive). The GI50 in [13] was 16.5 µM (inactive); in test [14] it was 11.6 µM (inactive); in test [15], 39.2 µM (inactive); in test [16], 22.8 µM (inactive); in test [18], 16.9 µM (inactive); in [19], 11.7 µM (inactive). Further, in test [20], the GI50 was 3.33 µM (inactive).

Consider `COC(=O)C1=C(C)N2[C@H](C(=O)O)CO[C@@]2(C)[C@H](C(=O)OC)[C@H]1c1cccc([N+](=O)[O-])c1`, for which the GI50 in [1], in [2], in test [3], in test [4], in test [5] and in test [6] was > 100 µM (inactive) throughout. Also, the GI50 in [7], in [8], in [9], in [10], in test [11] and in [12] was > 100 µM (inactive) throughout. For the same compound, the GI50 in [13], in test [14], in test [15], in test [16], in test [17] and in test [18] was > 100 µM (inactive) each time. Moreover, the GI50 in test [19] and in [20] was > 100 µM (inactive) each time.

With `O=C(CCN1CC2CCC(CC2)C1)c1cccs1`, the GI50 in [1] is > 53 µM (inactive); in test [2], 17.1 µM (inactive); in test [3], 17.3 µM (inactive); in [4], 27.3 µM (inactive); in [5] it was 21.4 µM (inactive); in test [6], 16.7 µM (inactive). Also, the GI50 in test [7] is 24.6 µM (inactive); in test [8], 18.7 µM (inactive); in test [9], 8.73 µM (inactive); in test [10] it was 18.1 µM (inactive); in test [11], 19.1 µM (inactive); in test [12], 15.6 µM (inactive). Also, the GI50 in test [13] was 18.4 µM (inactive); in [14], 8.59 µM (inactive); in [15], 18.7 µM (inactive); in test [16], 24.5 µM (inactive); in test [17], 18.3 µM (inactive); in [18] it was 8.77 µM (inactive). Further, the GI50 in [19] is 17.7 µM (inactive); in test [20] it was 4.49 µM (inactive).

As to `O=C1CSC2(CC(/C=C/c3ccccc3Br)=NN2c2cccc(S(=O)(=O)O)c2)N1c1nc2ccccc2s1` (stereo not drawn), the GI50 in test [1], in test [2], in [3], in test [4], in test [5] and in test [6] was > 100 µM (inactive) throughout. In addition, the GI50 is > 100 µM (inactive) in test [7]; > 100 µM (inactive) in test [8]; 55.1 µM (inactive) in test [9]; > 100 µM (inactive) in [10]; > 100 µM (inactive) in test [11]; > 100 µM (inactive) in [12]. In addition, the GI50 in test [13] is > 100 µM (inactive); in test [14] it was 50.4 µM (inactive); in [15] it was > 100 µM (inactive); in [16], > 100 µM (inactive); in test [17], 75.5 µM (inactive); in test [18], 93.5 µM (inactive). For the same compound, the GI50 in test [19] was 51.5 µM (inactive); in test [20], 33 µM (inactive).

For the compound `COC(=O)c1n[nH]c(C)c1/N=N/N(C)CCC#N`, the GI50 in test [1] is 28.7 µM (inactive); in [2], 29.8 µM (inactive); in test [3], 23.6 µM (inactive); in [4], 20.8 µM (inactive); in [5], 10.9 µM (inactive); in [6], 20 µM (inactive). The GI50 in test [7] was 16.2 µM (inactive); in [8], 11.6 µM (inactive); in [9] it was 2.13 µM (inactive); in test [10], 16.5 µM (inactive); in [11], 16.4 µM (inactive); in [12] it was 19.5 µM (inactive). Also, the GI50 was 16.3 µM (inactive) in test [13]; 7.14 µM (inactive) in test [14]; 14.4 µM (inactive) in test [15]; 23.3 µM (inactive) in test [16]; 16.7 µM (inactive) in [17]; 0.301 µM (active) in test [18]. Besides, the GI50 in [19] is 15.7 µM (inactive); in test [20], 5.79 µM (inactive).

Turning to `O=C(O)C(CCc1ccccn1)c1ccccc1` (stereo not drawn), the GI50 in test [1], in [2], in test [3], in [4], in test [5] and in test [6] was > 100 µM (inactive) throughout. In addition, the GI50 in [7], in test [8], in test [9], in test [10], in [11] and in [12] was > 100 µM (inactive) throughout. In addition, the GI50 in test [13], in [14], in test [15], in test [16], in test [17] and in [18] was > 100 µM (inactive) throughout. The GI50 in [19] and in test [20] was > 100 µM (inactive) each time.

On to `Cc1c(C(=O)NNc2ccccc2)n2c(S)nnc2c2ccccc12`, for which the GI50 is > 100 µM (inactive) in test [1]; 86.7 µM (inactive) in [2]; > 100 µM (inactive) in test [3]; > 100 µM (inactive) in [4]; 97.3 µM (inactive) in [5]; > 100 µM (inactive) in test [6]. Moreover, the GI50 in test [7] is > 100 µM (inactive); in test [8], > 100 µM (inactive); in test [9] it was > 100 µM (inactive); in test [10], > 100 µM (inactive); in test [11], > 100 µM (inactive); in test [12] it was 71.8 µM (inactive). Besides, the GI50 in test [13] is > 100 µM (inactive); in [14], > 100 µM (inactive); in test [15], > 100 µM (inactive); in [16], > 100 µM (inactive); in [17], > 100 µM (inactive); in test [18] it was 73.1 µM (inactive). Moreover, the GI50 in [19] was > 100 µM (inactive); in test [20], 74.3 µM (inactive).

`Oc1c(Br)c(-c2ccccc2)nc2ccccc12`: the GI50 in test [1] is > 10 µM (inactive); in [2] it was 89.1 µM (inactive); in test [3], > 10 µM (inactive); in test [4], > 89.1 µM (inactive); in test [5], 58.1 µM (inactive); in test [6], 9.38 µM (inactive). Further, the GI50 in test [7] was 35.1 µM (inactive); in test [8], 35.8 µM (inactive); in test [9] it was 9.55 µM (inactive); in test [10], 6.67 µM (inactive); in test [11] it was 53.3 µM (inactive); in [12], > 10 µM (inactive). The GI50 in test [13] was 22.1 µM (inactive); in test [14], 59.2 µM (inactive); in test [16], > 60.4 µM (inactive); in test [17], 98.4 µM (inactive); in [18], 4.71 µM (inactive); in [19] it was 21.9 µM (inactive). The GI50 in test [20] is 29.8 µM (inactive).
